Experimental findings from PubChem BioAssay (NCI) are described below.

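96-well plates; 48 h exposure; 5 concentrations. Endpoints by linear interpolation between flanking doses. Not reached: highest tested concentration assigned. TGI denotes the concentration required for complete inhibition of growth.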

Test systems include KM20L2 colon; DMS 114 small cell lung; DMS 273 small cell lung; LXFL 529 NSCLC; XF 498 CNS; HOP-18 NSCLC; M19-MEL melanoma; RXF-631 renal; DLD-1 colon; HS 578T breast; SNB-78 CNS.
Holding throughout (test): inhibition of tumour cell growth, NCI panel, 48 h

With `COc1cc2c(c(OC)c1OC)[C@@H]1CCCCC[C@@H]1CCC2=O`, the TGI in the assay on KM20L2 colon was above 100 µM; in the assay on DMS 114 small cell lung, above 57.1 µM; with DMS 273 small cell lung it was above 100 µM; with LXFL 529 NSCLC, above 100 µM; in the assay with XF 498 CNS it was above 100 µM; with HOP-18 NSCLC, above 100 µM. In addition, the TGI in the assay on M19-MEL melanoma is above 100 µM; in the assay on RXF-631 renal it was above 100 µM; with DLD-1 colon it was above 61 µM.
Regarding `COC(=O)c1c(C)c2c(c(C)c1O)OC(=O)c1c(C)cc(O)c(C=O)c1O2`, the TGI in the assay with HS 578T breast was above 100 µM.
On the same count and under the same terms, the same measure for `CCCCCCCCC#CCCCCCCC(F)C(=O)O` (centres undefined): above 100 µM.
Same read-out and setting: the same measure for `CCc1cn(C2CC(CO)C(CO)S2)c(=O)[nH]c1=O` (centres undefined): above 100 µM; for `CC(=O)O[C@H]1[C@@H](N2CCCCC2)C[C@H]2[C@@H]3CC=C4C[C@@H](N5CCCC5)CC[C@]4(C)[C@H]3CC[C@@]21C`: above 100 µM; for `Clc1nc(NC23CC4CC(CC(C4)C2)C3)nc(NC23CC4CC(CC(C4)C2)C3)n1`: above 100 µM.
On the same count and under the same terms, under `CCN1C(c2ccccc2)=CC(c2ccccc2)(C(Cl)(Cl)Cl)C=C1c1ccccc1` stands above 100 µM.
In the case of `COc1c(O)ccc(/C=N/NC(=S)NCOCCOC(C)=O)c1OC`, the TGI with KM20L2 colon, in the assay on DMS 114 small cell lung, in the assay on DMS 273 small cell lung, in the assay with LXFL 529 NSCLC, with XF 498 CNS and in the assay with SNB-78 CNS was above 100 µM in each case. The TGI with HOP-18 NSCLC, in the assay with M19-MEL melanoma, in the assay on RXF-631 renal and in the assay with DLD-1 colon was above 100 µM each time.
In the assay on HS 578T breast, `COc1ccc(-c2c(C#N)c(N)nc(Sc3ccccc3N)c2C#N)cc1` showed a TGI of 45.3 µM.
The same measure, in the same setting: the same measure for `COc1cc(C)cc2c1C(=O)C(NC(C)=O)=CC2=O`: above 100 µM.
`CC1=CC(=O)c2ccc3c4ccccc4n(C)c3c2C1=O`: the TGI in the assay on DMS 114 small cell lung is 97.1 µM; in the assay on DMS 273 small cell lung, above 100 µM; with LXFL 529 NSCLC, above 100 µM; in the assay on XF 498 CNS, above 100 µM; in the assay on SNB-78 CNS it was above 100 µM; with HOP-18 NSCLC, 42.2 µM. Further, the TGI is 38.2 µM in the assay with M19-MEL melanoma, above 100 µM in the assay with HS 578T breast and above 100 µM in the assay on DLD-1 colon.
Consider `CC[n+]1c(/C=C/c2cc(C(=O)OC)n3c2sc2ccccc23)sc2ccccc21`, for which the TGI in the assay with KM20L2 colon worked out at 35.1 µM; with DMS 114 small cell lung, 52.9 µM; in the assay with DMS 273 small cell lung, 38.2 µM; in the assay on LXFL 529 NSCLC, 32.9 µM; with XF 498 CNS, 29.3 µM; in the assay on M19-MEL melanoma it was 35.5 µM.
Regarding `COc1ccc(-n2c(C)nc3ccc(NC4OC(COC(C)=O)C(OC(C)=O)C(OC(C)=O)C4OC(C)=O)cc3c2=O)cc1` (centres undefined), the TGI in the assay with HS 578T breast is above 100 µM.
On the same count and under the same terms, under `Fc1nc(-c2c3ccccc3c3sc4ccccc4n23)nc(N2CCOCCOCCOCCOCC2)n1` stands above 100 µM; under `Cc1cc(NS(=O)(=O)c2ccc(NC(=O)c3ccc4nc5ccccc5c(Nc5ccc(S(N)(=O)=O)cc5)c4c3)cc2)no1`, 86.8 µM; under `CC(C)CC1C(=O)OC(C)(C)OC1=O`, above 100 µM.
Same read-out and setting: the same measure for `c1ccc(CSCCC(SCc2ccccc2)SCc2ccccc2)cc1`: above 10 µM; for `O=C(N/N=C\c1ccc([N+](=O)[O-])cc1)Nc1ccc2ccccc2c1`: 70.6 µM.
On the same count and under the same terms, under `N=c1oc2ccccc2cc1C(=O)Nc1ccccn1` stands above 100 µM; under `c1ccc2c(c1)n1c(N3CCCC3)[n+]3ccccc3c1c1c3cccc[n+]3c(N3CCCC3)n21`, above 100 µM; under `CSc1cc(Cl)c(C(=O)Nc2ccccc2)cc1S(=O)(=O)n1cc[nH]c1=O`, above 100 µM.
`CC1(c2cccc(C(F)(F)F)c2)CC(c2cccc(C(F)(F)F)c2)=C(C#N)C(=C(C#N)C#N)N1` (centres undefined) returned a TGI with HS 578T breast of 43.2 µM.
The same measure, in the same setting: under `COc1ccc2c(c1)C1Oc3ccccc3CC1CO2` (centres undefined) stands above 100 µM.
For the compound `COc1cc(Br)c(/C=N/N=C(\N)NO)cc1OC`, the TGI with KM20L2 colon was 47.2 µM; in the assay with DMS 114 small cell lung, 33.6 µM; in the assay with DMS 273 small cell lung, above 100 µM; in the assay with LXFL 529 NSCLC, above 100 µM; in the assay with XF 498 CNS, 69.6 µM; in the assay on SNB-78 CNS, above 100 µM. Further, the TGI in the assay on HOP-18 NSCLC was above 100 µM; in the assay on M19-MEL melanoma it was 76.2 µM; in the assay on RXF-631 renal, above 100 µM; with DLD-1 colon, above 100 µM.
In the assay with HS 578T breast, `COc1ccc(/C=N/n2c(Cc3ccccc3)n[nH]c2=O)c(OC)c1` displayed a TGI of 37.5 µM.
Same read-out and setting: the same measure for `CCc1n[nH]c(=O)n1N`: above 100 µM; for `CC1(C)C2CCC1(C)C(NC(=O)COCCOCC(N)=O)C2` (centres undefined): above 100 µM.
Same read-out and setting: under `COc1cccc(C2c3cc4c(cc3OC(N3CCCC3)C2c2ccccc2)OCO4)c1O` (centres undefined) stands 8.53 µM.
As for `CSCCCNC(=O)c1csc(-c2csc(CCNC(=O)CNC(=O)OC(C)(C)C)n2)n1`, in the assay on HS 578T breast, the TGI is above 100 µM.
Compound `CC(C)(C)C1CC[C@H](O)[C@H]([C@@H](O)CC2CC(=O)N(c3ccccc3)C(=O)C2)C1` (some centres undefined) gave a TGI in the assay with HS 578T breast above 100 µM.
Same read-out and setting: under `C1=C(c2ccccc2)NC2=N[C@H]3CCCC[C@@H]3N2C1c1ccccc1` (some centres undefined) stands 41.2 µM; under `c1ccc([P+](Cc2ccc(C[P+](c3ccccc3)(c3ccccc3)c3ccccc3)s2)(c2ccccc2)c2ccccc2)cc1`, above 100 µM.
On the same count and under the same terms, the same measure for `Cc1cc(O)c(C(O)c2ccccn2)cc1O` (centres undefined): above 100 µM.
Still for that read-out and setting: under `CCc1cccc(CC)c1Nc1nc(-c2ccccc2-c2ccccc2)cs1` stands above 100 µM.
For the compound `CCCCCCCCCCCC(=O)OCC(O)CO` (centres undefined), the TGI in the assay on HS 578T breast is above 100 µM.
